Test results reported in ChEMBL document CHEMBL1221313, “Synthesis of pyrrolomorphinan derivatives as kappa opioid agonists” (Bioorg Med Chem Lett, 2010).

Key:
Mu-type opioid receptor = Mu-type opioid receptor (Cavia porcellus, UniProt P97266); assay: Displacement of [3H]DAMGO from mu opioid receptor in guinea pig forebrain
Cavia porcellus = species: Cavia porcellus; assay: Selectivity ratio of Ki for delta opioid receptor in guinea pig forebrain to Ki for kappa opioid receptor in guinea pig cerebellum; format: tissue-based
[1] = target: Kappa-type opioid receptor (Cavia porcellus, UniProt P41144); assay: Displacement of [3H]U69593 from kappa opioid receptor in guinea pig cerebellum; format: tissue-based
Chain of Kappa-type opioid receptor (P41144 whole entry): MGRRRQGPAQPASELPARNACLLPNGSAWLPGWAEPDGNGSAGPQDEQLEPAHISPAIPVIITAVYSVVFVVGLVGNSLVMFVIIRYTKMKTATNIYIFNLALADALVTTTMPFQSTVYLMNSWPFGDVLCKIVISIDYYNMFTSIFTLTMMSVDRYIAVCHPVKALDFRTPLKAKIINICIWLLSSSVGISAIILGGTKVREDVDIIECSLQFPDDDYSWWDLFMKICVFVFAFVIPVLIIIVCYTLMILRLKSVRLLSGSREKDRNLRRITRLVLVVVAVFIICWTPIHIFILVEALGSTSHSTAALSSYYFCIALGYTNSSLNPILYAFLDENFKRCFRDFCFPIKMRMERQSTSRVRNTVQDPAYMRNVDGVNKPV

[2] = target: Opioid receptor (mu and kappa) (Cavia porcellus) (UniProt P41144+P97266); assay: Selectivity ratio of Ki for mu opioid receptor in guinea pig forebrain to Ki for kappa opioid receptor in guinea pig cerebellum; format: tissue-based
Chain of Opioid receptor (mu and kappa) (Cavia porcellus) (P41144 whole entry, looked up): as the sequence (P41144 whole entry) above
Chain of Opioid receptor (mu and kappa) (Cavia porcellus) (P97266 whole entry, looked up): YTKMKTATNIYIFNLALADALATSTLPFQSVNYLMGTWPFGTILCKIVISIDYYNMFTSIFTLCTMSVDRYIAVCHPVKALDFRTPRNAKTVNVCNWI

[3] = Displacement of [3H]NTI from delta opioid receptor in guinea pig forebrain; parameters: species or system Cavia porcellus
Mus musculus = assay: Antinociceptive activity in sc dosed mouse assessed as effect on acetic acid-induced writhing; format: functional

Chain of Mu-type opioid receptor (P97266 whole entry): as the sequence (P97266 whole entry, looked up) above

Row | SMILES | Ki (Mu-type opioid receptor) | Ratio Ki (Cavia porcellus) | Ki [1] | Ratio Ki [2] | Ki [3] | Activity (Mus musculus) | ED50 (Mus musculus) | IC50 [3]
1 | Cn1c(/C=C/C(=O)c2ccccc2)cc2c1[C@@H]1Oc3c(O)ccc4c3[C@@]13CCN(CC1CC1)[C@H](C4)[C@]3(O)C2 | 3.76 nM | 8 | 0.467 nM | 8.1 | 3.74 nM |  |  | 
2 | CCCCCC(=O)/C=C/c1cc2c(n1C)[C@@H]1Oc3c(O)ccc4c3[C@@]13CCN(CC1CC1)[C@H](C4)[C@]3(O)C2 | 15 nM | 2.9 | 1.24 nM | 12 | 3.55 nM | Dose-dependent effect | 5.87 mg/kg | 
3 | CCC/C=C/c1cc2c(n1C)[C@@H]1Oc3c(O)ccc4c3[C@@]13CCN(CC1CC1)[C@H](C4)[C@]3(O)C2 | 5.85 nM | 0.9 | 7.38 nM | 0.8 | 6.58 nM |  |  | 
4 | Cc1occc1C(=O)/C=C/c1cc2c(n1C)[C@@H]1Oc3c(O)ccc4c3[C@@]13CCN(CC1CC1)[C@H](C4)[C@]3(O)C2 | 6.2 nM | 1.3 | 1.15 nM | 5.4 | 1.47 nM |  |  | 
5 | Cn1c(/C=C/C(=O)Cc2ccccc2)cc2c1[C@@H]1Oc3c(O)ccc4c3[C@@]13CCN(CC1CC1)[C@H](C4)[C@]3(O)C2 | 6.58 nM | 1.8 | 1.13 nM | 5.8 | 2.08 nM |  |  | 
6 | Cn1c(CCC(=O)CCc2ccccc2)cc2c1[C@@H]1Oc3c(O)ccc4c3[C@@]13CCN(CC1CC1)[C@H](C4)[C@]3(O)C2 | 0.548 nM | 4.6 | 0.342 nM | 1.6 | 1.59 nM |  |  | 
7 | Cn1c(/C=C/c2ccccc2)cc2c1[C@@H]1Oc3c(O)ccc4c3[C@@]13CCN(CC1CC1)[C@H](C4)[C@]3(O)C2 | 1.76 nM |  | 3.79 nM | 0.5 |  |  |  | > 1000 nM
8 | Cn1c(/C=C/C(=O)CCc2ccccc2)cc2c1[C@@H]1Oc3c(O)ccc4c3[C@@]13CCN(CC1CC1)[C@H](C4)[C@]3(O)C2 | 6.89 nM | 1.9 | 0.935 nM | 7.4 | 1.73 nM |  |  | 
